ChEMBL document CHEMBL4422644, “Synthesis and evaluation of α-aminoacyl amides as antitubercular agents effective on drug resistant tuberculosis” (Eur J Med Chem, 2019)
Converted amounts (≈) assume the structure as drawn.

How the values were obtained:
[1] = system: Mycobacterium tuberculosis; assay: Antitubercular activity against Mycobacterium tuberculosis H37Rv after 7 days by alamar blue assay; type: functional; conditions: 168 h
CHO-K1 = assay: Cytotoxicity against CHOK1 cells after 24 hrs by MTT assay; type: cell-based; conditions: Cricetulus griseus, CHO-K1, 24 h
[2] = Selectivity index, ratio of IC50 for CHOK1 cells to MIC for Mycobacterium tuberculosis H37Rv; type: toxicity; conditions: hamster, read-out: Selectivity Index
A549 = assay: Cytotoxicity against human A549 cells after 24 hrs by MTT assay; type: functional, cell-based; conditions: A549, 24 h
DU-145 = assay: Cytotoxicity against human DU145 cells after 24 hrs by MTT assay; type: functional, cell-based; conditions: DU-145, 24 h
HeLa = assay: Cytotoxicity against human HeLa cells after 24 hrs by MTT assay; type: functional, cell-based
HepG2 = assay: Cytotoxicity against human HepG2 cells after 24 hrs by MTT assay; type: functional, cell-based; conditions: HepG2, 24 h
MCF7 = assay: Cytotoxicity against human MCF7 cells after 24 hrs by MTT assay; type: functional, cell-based; conditions: MCF7, 24 h
[3] = Cytotoxicity against […] B16 cells after 24 hrs by MTT assay; type: functional, cell-based; conditions: B16, 24 h
[4] = Cytotoxicity against HEK cells after 24 hrs by MTT assay; type: cell-based; conditions: Homo sapiens, HEK293, 24 h
[5] = Selectivity index, ratio of IC50 for HEK cells to MIC for Mycobacterium tuberculosis H37Rv; type: toxicity; conditions: human, read-out: Selectivity Index
Escherichia coli = assay: Antibacterial activity against Escherichia coli ATCC 25922 after 24 hrs; type: functional; conditions: ATCC 25922, 24 h
Staphylococcus aureus = assay: Antibacterial activity against Staphylococcus aureus ATCC 29213 after 24 hrs; type: functional; conditions: ATCC 29213, 24 h
Pseudomonas aeruginosa = assay: Antibacterial activity against Pseudomonas aeruginosa ATCC 27853 after 24 hrs; type: functional; conditions: ATCC 27853, 24 h
Klebsiella pneumoniae = assay: Antibacterial activity against Klebsiella pneumoniae ATCC BAA-1705 after 24 hrs; type: functional; conditions: ATCC BAA-1705, 24 h
Acinetobacter baumannii = assay: Antibacterial activity against Acinetobacter baumannii ATCC BAA-1605 after 24 hrs; type: functional; conditions: ATCC BAA-1605, 24 h
[6] = system: Mycolicibacterium fortuitum; assay: Antibacterial activity against Mycobacterium fortuitum after 7 days by alamar blue assay; type: functional; conditions: 168 h
Mycobacteroides chelonae = assay: Antibacterial activity against Mycobacterium chelonae after 7 days by alamar blue assay; type: functional; conditions: 168 h
[7] = system: Mycobacteroides abscessus; assay: Antibacterial activity against Mycobacterium abscessus after 7 days by alamar blue assay; type: functional; conditions: 168 h

Compound: Cc1cccc(N(C(=O)C2CCCCN2)C(C(=O)NC2CCCCC2)c2ccccc2)c1C (configuration not stated)
- MIC [1]: 3.12 µM (≈ 1.4 µg/mL)
- IC50 (CHO-K1): 54.4 µM
- selectivity ratio [2]: 4.3
- IC50 (A549): 9.74 µM
- IC50 (DU-145): 8.82 µM
- IC50 (HeLa): 10.3 µM
- IC50 (HepG2): 10.6 µM
- IC50 (MCF7): 3.31 µM
- IC50 [3]: 16.4 µM
- IC50 [4]: 174 µM
- selectivity ratio [5]: 55.7
- MIC (Escherichia coli): > 50 µM
- MIC (Staphylococcus aureus): > 50 µM
- MIC (Pseudomonas aeruginosa): > 50 µM
- MIC (Klebsiella pneumoniae): > 50 µM
- MIC (Acinetobacter baumannii): > 50 µM
- MIC [6]: > 50 µM
- MIC (Mycobacteroides chelonae): > 50 µM
- MIC [7]: > 50 µM

Compound: Cc1cccc(N(C(=O)c2c(C)noc2C)C(C(=O)NC2CCCCC2)c2ccccc2)c1C (configuration not stated)
- MIC [1]: 3.12 µM (≈ 1.43 µg/mL)
- IC50 (CHO-K1): 47.5 µM
- selectivity ratio [2]: 15.1
- IC50 (A549): 8.49 µM
- IC50 (DU-145): 9.95 µM
- IC50 (HeLa): 8.67 µM
- IC50 (HepG2): 10.4 µM
- IC50 (MCF7): 3.05 µM
- IC50 [3]: 27.7 µM
- IC50 [4]: 97.6 µM
- selectivity ratio [5]: 31.3
- MIC (Escherichia coli): > 50 µM
- MIC (Staphylococcus aureus): > 50 µM
- MIC (Pseudomonas aeruginosa): > 50 µM
- MIC (Klebsiella pneumoniae): > 50 µM
- MIC (Acinetobacter baumannii): > 50 µM
- MIC [6]: > 50 µM
- MIC (Mycobacteroides chelonae): > 50 µM
- MIC [7]: > 50 µM

Compound: Cc1nc(C)c(C(=O)N(c2cccc(C)c2C)C(C(=O)NC2CCCCC2)c2ccncc2)s1 (configuration not stated)
- MIC [1]: 1.56 µM (≈ 0.744 µg/mL)
- IC50 (CHO-K1): 71.8 µM
- selectivity ratio [2]: 45.5
- IC50 (A549): 6.6 µM
- IC50 (DU-145): 10.9 µM
- IC50 (HeLa): 10.5 µM
- IC50 (HepG2): 14.5 µM
- IC50 (MCF7): 4.49 µM
- IC50 [3]: 11.6 µM
- IC50 [4]: 48.9 µM
- selectivity ratio [5]: 31.4
- MIC (Escherichia coli): > 50 µM
- MIC (Staphylococcus aureus): > 50 µM
- MIC (Pseudomonas aeruginosa): > 50 µM
- MIC (Klebsiella pneumoniae): > 50 µM
- MIC (Acinetobacter baumannii): > 50 µM
- MIC [6]: > 50 µM
- MIC (Mycobacteroides chelonae): > 50 µM
- MIC [7]: > 50 µM

Compound: Cc1nc(C)c(C(=O)N(c2cccc(C)c2C)C(C(=O)NCc2ccccc2)c2ccccc2)s1 (configuration not stated)
- MIC [1]: 6.12 µM (≈ 2.96 µg/mL)
- IC50 (CHO-K1): 30.2 µM
- selectivity ratio [2]: 4.9
- IC50 (A549): 12.7 µM
- IC50 (DU-145): 12.6 µM
- IC50 (HeLa): 11.7 µM
- IC50 (HepG2): 8.13 µM
- IC50 (MCF7): 5.62 µM
- IC50 [3]: 12.4 µM
- IC50 [4]: 31.2 µM
- MIC (Escherichia coli): > 50 µM
- MIC (Staphylococcus aureus): > 50 µM
- MIC (Pseudomonas aeruginosa): > 50 µM
- MIC (Klebsiella pneumoniae): > 50 µM
- MIC (Acinetobacter baumannii): > 50 µM
- MIC [6]: > 50 µM
- MIC (Mycobacteroides chelonae): > 50 µM
- MIC [7]: > 50 µM

Compound: Cc1ccc(N(C(=O)c2sc(C)nc2C)C(C(=O)NC2CCCCC2)c2ccccc2)c(C)c1 (configuration not stated)
- MIC [1]: 12.5 µM (≈ 5.95 µg/mL)
- IC50 (CHO-K1): 43 µM
- selectivity ratio [2]: 3.4
- IC50 (A549): 8.63 µM
- IC50 (DU-145): 11.4 µM
- IC50 (HeLa): 9.43 µM
- IC50 (HepG2): 12.6 µM
- IC50 (MCF7): 11.7 µM
- IC50 [3]: 29.8 µM
- IC50 [4]: 47 µM
- MIC (Escherichia coli): > 50 µM
- MIC (Staphylococcus aureus): > 50 µM
- MIC (Pseudomonas aeruginosa): > 50 µM
- MIC (Klebsiella pneumoniae): > 50 µM
- MIC (Acinetobacter baumannii): > 50 µM
- MIC [6]: > 50 µM
- MIC (Mycobacteroides chelonae): > 50 µM
- MIC [7]: > 50 µM

Compound: Cc1cccc(N(C(=O)c2c(C)noc2C)C(C(=O)NC2CCCCC2)c2cccnc2)c1C (configuration not stated)
- MIC [1]: 6.25 µM (≈ 2.88 µg/mL)
- IC50 (CHO-K1): 137 µM
- selectivity ratio [2]: 21.7
- IC50 (A549): 12.8 µM
- IC50 (DU-145): 12 µM
- IC50 (HeLa): 14.1 µM
- IC50 (HepG2): 11.8 µM
- IC50 (MCF7): 6.62 µM
- IC50 [3]: 32.7 µM
- IC50 [4]: 76.9 µM
- MIC (Escherichia coli): > 50 µM
- MIC (Staphylococcus aureus): > 50 µM
- MIC (Pseudomonas aeruginosa): > 50 µM
- MIC (Klebsiella pneumoniae): > 50 µM
- MIC (Acinetobacter baumannii): > 50 µM
- MIC [6]: > 50 µM
- MIC (Mycobacteroides chelonae): > 50 µM
- MIC [7]: > 50 µM

Compound: Cc1ccc(N(C(=O)c2c(C)noc2C)C(C(=O)NC2CCCCC2)c2cccnc2)cc1 (configuration not stated)
- MIC [1]: 6.12 µM (≈ 2.73 µg/mL)
- IC50 (CHO-K1): 112 µM
- selectivity ratio [2]: 17.9
- IC50 (A549): 12.9 µM
- IC50 (DU-145): 11 µM
- IC50 (HeLa): 18.2 µM
- IC50 (HepG2): 10.3 µM
- IC50 (MCF7): 5.39 µM
- IC50 [3]: 40 µM
- IC50 [4]: 82 µM
- MIC (Escherichia coli): > 50 µM
- MIC (Staphylococcus aureus): > 50 µM
- MIC (Pseudomonas aeruginosa): > 50 µM
- MIC (Klebsiella pneumoniae): > 50 µM
- MIC (Acinetobacter baumannii): > 50 µM
- MIC [6]: > 50 µM
- MIC (Mycobacteroides chelonae): > 50 µM
- MIC [7]: > 50 µM

Compound: Cc1ccc(N(C(=O)c2sc(C)nc2C)C(C(=O)NC2CCCCC2)c2cccnc2)cc1 (configuration not stated)
- MIC [1]: 3.12 µM (≈ 1.44 µg/mL)
- IC50 (CHO-K1): 161 µM
- selectivity ratio [2]: 51.6
- IC50 (A549): 11.7 µM
- IC50 (DU-145): 16.6 µM
- IC50 (HeLa): 9.11 µM
- IC50 (HepG2): 6.75 µM
- IC50 (MCF7): 5.99 µM
- IC50 [3]: 17.7 µM
- IC50 [4]: 59.1 µM
- selectivity ratio [5]: 18.9
- MIC (Escherichia coli): > 50 µM
- MIC (Staphylococcus aureus): > 50 µM
- MIC (Pseudomonas aeruginosa): > 50 µM
- MIC (Klebsiella pneumoniae): > 50 µM
- MIC (Acinetobacter baumannii): > 50 µM
- MIC [6]: > 50 µM
- MIC (Mycobacteroides chelonae): > 50 µM
- MIC [7]: > 50 µM

Compound: Cc1ccc(N(C(=O)c2sc(C)nc2C)C(C(=O)NC2CCCCC2)c2ccncc2)cc1 (configuration not stated)
- MIC [1]: 12.5 µM (≈ 5.78 µg/mL)
- IC50 (CHO-K1): 141 µM
- selectivity ratio [2]: 11.3
- IC50 (A549): 11.6 µM
- IC50 (DU-145): 14.5 µM
- IC50 (HeLa): 11 µM
- IC50 (HepG2): 12 µM
- IC50 (MCF7): 10.3 µM
- IC50 [3]: 23.9 µM
- IC50 [4]: 81.1 µM
- MIC (Escherichia coli): > 50 µM
- MIC (Staphylococcus aureus): > 50 µM
- MIC (Pseudomonas aeruginosa): > 50 µM
- MIC (Klebsiella pneumoniae): > 50 µM
- MIC (Acinetobacter baumannii): > 50 µM
- MIC [6]: > 50 µM
- MIC (Mycobacteroides chelonae): > 50 µM
- MIC [7]: > 50 µM

Compound: Cc1cc(C)c(N(C(=O)c2sc(C)nc2C)C(C(=O)NC2CCCCC2)c2ccccc2)c(C)c1 (configuration not stated)
- MIC [1]: 3.25 µM (≈ 1.59 µg/mL)
- IC50 (CHO-K1): 25.9 µM
- selectivity ratio [2]: 8
- IC50 (A549): 2.75 µM
- IC50 (DU-145): 11.7 µM
- IC50 (HeLa): 10.9 µM
- IC50 (HepG2): 6.37 µM
- IC50 (MCF7): 3.56 µM
- IC50 [3]: 11.7 µM
- IC50 [4]: 51.2 µM
- MIC (Escherichia coli): > 50 µM
- MIC (Staphylococcus aureus): > 50 µM
- MIC (Pseudomonas aeruginosa): > 50 µM
- MIC (Klebsiella pneumoniae): > 50 µM
- MIC (Acinetobacter baumannii): > 50 µM
- MIC [6]: > 50 µM
- MIC (Mycobacteroides chelonae): > 50 µM
- MIC [7]: > 50 µM

Compound: Cc1cccc(N(C(=O)c2ccc[nH]2)C(C(=O)NC2CCCCC2)c2cccnc2)c1C (configuration not stated)
- MIC [1]: 12.5 µM (≈ 5.38 µg/mL)
- IC50 (CHO-K1): 267 µM
- selectivity ratio [2]: 21.4
- IC50 (A549): 17.5 µM
- IC50 (DU-145): 12.6 µM
- IC50 (HeLa): 10 µM
- IC50 (HepG2): 9.58 µM
- IC50 (MCF7): 5.51 µM
- IC50 [3]: 13.7 µM
- IC50 [4]: 54.3 µM
- MIC (Escherichia coli): > 50 µM
- MIC (Staphylococcus aureus): > 50 µM
- MIC (Pseudomonas aeruginosa): > 50 µM
- MIC (Klebsiella pneumoniae): > 50 µM
- MIC (Acinetobacter baumannii): > 50 µM
- MIC [6]: > 50 µM
- MIC (Mycobacteroides chelonae): > 50 µM
- MIC [7]: > 50 µM
